Consider nine molecules from article PMC10198811 (The Pediatric infectious disease journal, 2023).

Series [1] relates to F. solani isolate. The experiment in a line: Antifungal susceptibility testing. The series is classed as cell-based, F. solani complex. The settings on record: Fusarium solani.
For series [2] the following is noted: cited from earlier work.
In the next series the test system is CYP2C19. The settings on record: compared to ilaprazole and pantoprazole; cited from earlier work.
The test system of a further series is Fusarium spp. The settings on record: cited from earlier work.
The conditions of series [3]: cited from earlier work. The source holds these as a separate data set.
The test system of series [4] is F. solani isolate. The experiment in a line: In vitro synergy testing of the voriconazole and micafungin combination. The settings on record: tested at University of Texas Health Science Center in San Antonio. Type of series: cell-based, F. solani complex.

The structures appear in SMILES notation. ≈ marks a conversion by molar mass, not a printed value. Like-named read-outs stand apart in the source and are kept apart here. *1 amine or outer side, *2 acyl side, *3 side chain or, on linkers, in order; H or OH if unused. Where a SMILES comes first, the peptide text is derived from it. Bridges are numbered along the chain shown (N, C = ends). [ ]: non-standard residue; d: D form. The star is where a group is joined. hTyr(3S-OH,4S-OH,3'-OSO3H) = N[C@H](C(=O)O)[C@H](O)[C@@H](O)c1ccc(O)c(OS(=O)(=O)O)c1; Orn(4R-OH,5R-OH) = O=C([C@H](C[C@@H](O)[C@@H](O)N[*:3])N[*:1])[*:2]; Pro(3S-OH,4S-Me) = C[C@H]1CN[C@H](C(=O)O)[C@H]1O; X1 = CCCCCOc1ccc(-c2cc(-c3ccc(C(=O)*)cc3)no2)cc1; Gln(3R-OH) = NC(=O)C[C@@H](O)[C@H](N)C(=O)O; Hyp = O=C(O)[C@@H]1C[C@@H](O)CN1

The term MIC denotes the smallest concentration in the dilution series that meets the test's criterion for growth inhibition. A low value points to greater potency. In the series on F. solani isolate [1], `C[C@@H](c1nc(-c2ccc(C#N)cc2)cs1)[C@](O)(Cn1cncn1)c1cc(F)ccc1F` [isavuconazole] gave an MIC above 16 µg/mL. For the molecule `COc1ccc2[nH]c([S+]([O-])Cc3ncc(C)c(OC)c3C)nc2c1` (stereo not shown) [omeprazole], in series [2] (voriconazole co-administration), the “Omeprazole AUC with voriconazole compared to absence of co-administration” value is given as 4 times higher and the “Omeprazole Cmax with voriconazole compared to absence of co-administration” value is reported as 2 times higher. Besides, the CYP2C19 inhibitory effect entry with CYP2C19 is listed as “more potent inhibitory effects”. Take `COc1ccc2nc([S@@+]([O-])Cc3ncc(C)c(OC)c3C)[nH]c2c1` [esomeprazole]: the CYP2C19 inhibitory effect entry in the series with CYP2C19 is on record as “more potent inhibitory effects”. By MIC50 is commonly meant an inhibitory concentration at the 50% level, which refers to growth in some studies and to a panel of isolates in others. `C[C@@H](c1ncncc1F)[C@](O)(Cn1cncn1)c1ccc(F)cc1F` [voriconazole] had an MIC in the series with F. solani isolate [1] of 4 µg/mL (≈ 11.5 µM). Further, the “Increase of voriconazole AUC” value is 23% in series [2] (healthy subjects, with cimetidine 400 mg PO q12h) and 40% in series [2] (healthy volunteers, with omeprazole 40 mg PO q24h). Further, in the series on Fusarium spp., the MIC50 was 8 µg/mL (≈ 22.9 µM). In the series on F. solani complex (6 months after initiation of voriconazole therapy), the “Repeat imaging of metastatic sites of proven or suspected infection” value is listed as “significant interval improvement or resolution of all metastatic sites”. Besides, the “Voriconazole-related toxicity (e.g., hepatotoxicity, neurotoxicity)” value in the series on F. solani complex (~10.7 mg/kg/dose PO q8h for several months, troughs 4 to 6 mcg/mL) was “without any evidence of voriconazole-related toxicity”. As for `CC[C@@H]([C@H](C)O)n1ncn(-c2ccc(N3CCN(c4ccc(OC[C@@H]5CO[C@@](Cn6cncn6)(c6ccc(F)cc6F)C5)cc4)CC3)cc2)c1=O` [posaconazole], the MIC in the series with F. solani isolate [1] is above 16 µg/mL. In the series with F. solani isolate [1], `C[C@@H]1[C@H](O)[C@@H](C)/C=C/C=C/C=C/C=C/C=C/C=C/C=C/[C@H](O[C@@H]2O[C@H](C)[C@@H](O)[C@H](N)[C@@H]2O)C[C@@H]2O[C@](O)(C[C@@H](O)C[C@@H](O)[C@H](O)CC[C@@H](O)C[C@@H](O)CC(=O)O[C@H]1C)C[C@H](O)[C@H]2C(=O)O` [amphotericin B] gave an MIC of 8 µg/mL (≈ 8.66 µM).

Take `CN/C(=N/CCSCc1nc[nH]c1C)NC#N` [cimetidine]: the Toxicity result in series [3] is “central nervous system effects and anti-androgenic side effects”. For the molecule `Cc1c(OCC(F)(F)F)ccnc1C[S+]([O-])c1nc2ccccc2[nH]1` (stereo not shown) [lansoprazole], the CYP2C19 inhibitory effect result in the series on CYP2C19 was “more potent inhibitory effects”. Consider `CCCCCOc1ccc(-c2cc(-c3ccc(C(=O)N[C@H]4C[C@@H](O)[C@@H](O)NC(=O)[C@@H]5[C@@H](O)[C@@H](C)CN5C(=O)[C@H]([C@H](O)CC(N)=O)NC(=O)[C@H]([C@H](O)[C@@H](O)c5ccc(O)c(OS(=O)(=O)O)c5)NC(=O)[C@@H]5C[C@@H](O)CN5C(=O)[C@H]([C@@H](C)O)NC4=O)cc3)no2)cc1` [micafungin] (X1-[Orn(4R-OH,5R-OH)]T[Hyp][hTyr(3S-OH,4S-OH,3'-OSO3H)][Gln(3R-OH)][Pro(3S-OH,4S-Me)]; lactam 1-C), for which, in the series with F. solani isolate [4], the Synergy of combination result was “did not reveal synergy”.
